Key:
Rat [1] = assay: concentration in liver after dosing; settings: 3360 h; dosed: Perfluorooctane Sulfonate; 2 mg/kg; oral; Female; Harlan Sprague Dawley
Rat [2] = assay: concentration in liver after dosing; settings: 6 h; dosed: Perfluorooctane Sulfonate; 2 mg/kg; oral; Female; Harlan Sprague Dawley
Rat [3] = assay: concentration in liver after dosing; settings: 6 h; dosed: Perfluorooctane Sulfonate; 2 mg/kg; oral; Female; Harlan Sprague Dawley; remark: listed apart in the source
Rat [4] = assay: concentration in liver after dosing; settings: 6 h; dosed: Perfluorooctane Sulfonate; 20 mg/kg; oral; Male; Harlan Sprague Dawley
Rat [5] = assay: concentration in brain after dosing; settings: 864 h; dosed: Perfluorooctane Sulfonate; 20 mg/kg; oral; Female; F344
Rat [6] = assay: concentration in liver after dosing; settings: 1848 h; dosed: Perfluorooctane Sulfonate; 20 mg/kg; oral; Male; Harlan Sprague Dawley
Rat [7] = assay: concentration in brain after dosing; settings: 1848 h; dosed: Perfluorooctane Sulfonate; 20 mg/kg; oral; Female; F344
Rat [8] = assay: concentration in brain after dosing; settings: 864 h; dosed: Perfluorooctane Sulfonate; 20 mg/kg; oral; Female; F344; remark: listed apart in the source
Rat [9] = assay: concentration in liver after dosing; settings: 3360 h; dosed: Perfluorooctane Sulfonate; 2 mg/kg; oral; Female; Harlan Sprague Dawley; remark: listed apart in the source
Rat [10] = assay: concentration in liver after dosing; settings: 24 h; dosed: Perfluorooctane Sulfonate; 20 mg/kg; oral; Male; Harlan Sprague Dawley
Rat [11] = assay: concentration in plasma after dosing; settings: 1848 h; dosed: Perfluorooctane Sulfonate; 2 mg/kg; oral; Female; Harlan Sprague Dawley
Rat [12] = assay: concentration in kidney after dosing; settings: 3360 h; dosed: Perfluorooctane Sulfonate; 2 mg/kg; oral; Female; Harlan Sprague Dawley
Rat [13] = assay: concentration in kidney after dosing; settings: 6 h; dosed: Perfluorooctane Sulfonate; 2 mg/kg; oral; Female; Harlan Sprague Dawley
Rat [14] = assay: concentration in kidney after dosing; settings: 24 h; dosed: Perfluorooctane Sulfonate; 2 mg/kg; oral; Female; Harlan Sprague Dawley
Rat [15] = assay: concentration in plasma after dosing; settings: dosed: Perfluorooctane Sulfonate, 2 mg/kg, oral, Female, Harlan Sprague Dawley
Rat [16] = assay: concentration in plasma after dosing; settings: dosed: Perfluorooctane Sulfonate, 2 mg/kg, iv, Female, F344
Rat [17] = assay: concentration in plasma after dosing; settings: 10 h; dosed: Gemfibrozil; 50 mg/kg; oral; Male; Sprague-Dawley
Rat [18] = assay: concentration in plasma after dosing; settings: 24 h; dosed: Gemfibrozil; 4.29 mg/kg; oral; Male; Sprague-Dawley
Rat [19] = assay: concentration in plasma after dosing; settings: 6 h; dosed: Gemfibrozil; 4.29 mg/kg; oral; Male; Sprague-Dawley
Rat [20] = assay: concentration in plasma after dosing; settings: 0.25 h; dosed: Gemfibrozil; 100 mg/kg; oral; Male; Sprague-Dawley
Rat [21] = assay: concentration in brain after dosing; settings: 3 h; dosed: Perfluorohexanoic Acid; 80 mg/kg; oral; Male; Harlan Sprague Dawley
Rat [22] = assay: concentration in brain after dosing; settings: 6 h; dosed: Perfluorohexanoic Acid; 80 mg/kg; oral; Male; Harlan Sprague Dawley
Rat [23] = assay: concentration in brain after dosing; settings: 1 h; dosed: Perfluorohexanoic Acid; 80 mg/kg; oral; Male; Harlan Sprague Dawley
Rat [24] = assay: concentration in liver after dosing; settings: 3 h; dosed: Perfluorohexanoic Acid; 80 mg/kg; oral; Male; Harlan Sprague Dawley
Rat [25] = assay: concentration in plasma after dosing; settings: dosed: Perfluorohexanoic Acid, 40 mg/kg, oral, Male, Harlan Sprague Dawley
Rat [26] = assay: concentration in plasma after dosing; settings: dosed: Perfluorohexanoic Acid, 40 mg/kg, oral, Male, Harlan Sprague Dawley; remark: listed apart in the source
Rat [27] = assay: concentration in plasma after dosing; settings: 0.5 h; dosed: Perfluorohexanoic Acid; 40 mg/kg; iv; Male; F344
Rat [28] = assay: concentration in kidney after dosing; settings: 0.5 h; dosed: Perfluorohexanoic Acid; 80 mg/kg; oral; Male; Harlan Sprague Dawley
Rat [29] = assay: concentration in plasma after dosing; settings: 1 h; dosed: Perfluorohexanoic Acid; 40 mg/kg; iv; Female; Harlan Sprague-Dawley
Rat [30] = assay: concentration in brain after dosing; settings: 6 h; dosed: Fluorotelomer alcohol 8+2; 24 mg/kg; oral; Male; Harlan Sprague Dawley
Rat [31] = assay: concentration in brain after dosing; settings: 12 h; dosed: Fluorotelomer alcohol 8+2; 80 mg/kg; oral; Female; Harlan Sprague Dawley
Rat [32] = assay: concentration in liver after dosing; settings: 0.5 h; dosed: Fluorotelomer alcohol 8+2; 24 mg/kg; oral; Male; Harlan Sprague Dawley
Rat [33] = assay: concentration in kidney after dosing; settings: 6 h; dosed: Fluorotelomer alcohol 8+2; 80 mg/kg; oral; Female; Harlan Sprague Dawley
Rat [34] = assay: concentration in plasma after dosing; settings: 0.25 h; dosed: 678-39-7; 12 mg/kg; iv; Male; F344
Rat [35] = assay: concentration in plasma after dosing; settings: dosed: 678-39-7, 40 mg/kg, iv, Male, F344
Rat [36] = assay: concentration in plasma after dosing; settings: dosed: 678-39-7, 12 mg/kg, iv, Male, F344
Rat [37] = assay: concentration in brain after dosing; settings: 0.75 h; dosed: 2-Methyltetrahydrofuran; 40 mg/kg; iv; Male; Harlan Sprague Dawley
Rat [38] = assay: concentration in brain after dosing; settings: 0.75 h; dosed: 2-Methyltetrahydrofuran; 40 mg/kg; iv; Male; Harlan Sprague Dawley; remark: listed apart in the source
Rat [39] = assay: concentration in brain after dosing; settings: 7 min; dosed: 2-Methyltetrahydrofuran; 40 mg/kg; iv; Male; Harlan Sprague Dawley
Rat [40] = assay: concentration in brain after dosing; settings: 0.2 h; dosed: 2-Methyltetrahydrofuran; 40 mg/kg; iv; Male; Harlan Sprague Dawley
Rat [41] = assay: concentration in plasma after dosing; settings: 0.5 h; dosed: 2-Methyltetrahydrofuran; 40 mg/kg; iv; Female; Harlan Sprague Dawley

O=S(=O)([O-])C(F)(F)C(F)(F)C(F)(F)C(F)(F)C(F)(F)C(F)(F)C(F)(F)C(F)(F)F [Perfluorooctane Sulfonate]
Settings	concentration in brain [ng/g]	concentration in kidney [ng/g]	concentration in liver [ng/g]	concentration in plasma [ng/mL]
Rat [1]	–	–	2150	–
Rat [2]	–	–	24500	–
Rat [3]	–	–	24500	–
Rat [4]	–	–	204000	–
Rat [5]	2700	–	–	–
Rat [6]	–	–	59600	–
Rat [7]	1910	–	–	–
Rat [8]	2730	–	–	–
Rat [9]	–	–	4340	–
Rat [10]	–	–	164000	–
Rat [11]	–	–	–	987
Rat [12]	–	1070	–	–
Rat [13]	–	12700	–	–
Rat [14]	–	8400	–	–

concentration in plasma [ng/mL]
Settings	5 min	6 h	192 h	864 h	1200 h
Rat [15]	27.5	–	3830	–	1210
Rat [16]	–	4560	–	1530	–

Cc1ccc(C)c(OCCCC(C)(C)C(=O)O)c1 [Gemfibrozil]
Settings	concentration in plasma [ng/mL]
Rat [17]	4380
Rat [18]	159
Rat [19]	640
Rat [20]	35700

O=C(O)C(F)(F)C(F)(F)C(F)(F)C(F)(F)C(F)(F)F [Perfluorohexanoic Acid]
Settings	concentration in brain [ng/g]	concentration in kidney [ng/g]	concentration in liver [ng/g]	concentration in plasma [ng/mL]
Rat [21]	1460	–	–	–
Rat [22]	694	–	–	–
Rat [23]	2670	–	–	–
Rat [24]	–	–	37400	–
Rat [27]	–	–	–	4980
Rat [28]	–	69600	–	–
Rat [29]	–	–	–	98.9

concentration in plasma [ng/mL]
Settings	Rat [25]	Rat [26]
0.25 h	54000	44500
6 h	31300	26700

O=C(O)CCC(F)(F)C(F)(F)C(F)(F)C(F)(F)C(F)(F)C(F)(F)C(F)(F)F [Fluorotelomer acid 7+3]
Settings	concentration in brain [ng/g]	concentration in kidney [ng/g]	concentration in liver [ng/g]	concentration in plasma [ng/mL]
Rat [30]	179	–	–	–
Rat [31]	432	–	–	–
Rat [32]	–	–	347	–
Rat [33]	–	3640	–	–
Rat [34]	–	–	–	51.7

concentration in plasma [ng/mL]
Settings	0.25 h	0.75 h	6 h	12 h
Rat [35]	115	–	2200	–
Rat [36]	–	365	–	74.1

CC1CCCO1 (stereo not drawn) [2-Methyltetrahydrofuran]
Settings	concentration in brain [ng/mL]	concentration in plasma [ng/mL]
Rat [37]	11400	–
Rat [38]	15400	–
Rat [39]	31000	–
Rat [40]	25500	–
Rat [41]	–	27200

Reference: EPA's CvTdb concentration-time database
